Consider 1 molecule from US4320057A, “Aryl--pyrrolo--thiazepin--diones and aryl--piperidino--thiazepin--diones” (American Home Products Corporation, priority 1981, dated 1982).

In this test the target is T1, angiotensin converting enzyme (Oryctolagus cuniculus, UniProt P12822).
T1 construct: A crude angiotensin converting enzyme supernatant is obtained by blending 1 gm. of rabbit lung acetone powder; tissue PelFreez Biologicals; host or cells: rabbit lung acetone powder, crude 40,000 xg supernatant
T1 sequence (P12822 34-1310): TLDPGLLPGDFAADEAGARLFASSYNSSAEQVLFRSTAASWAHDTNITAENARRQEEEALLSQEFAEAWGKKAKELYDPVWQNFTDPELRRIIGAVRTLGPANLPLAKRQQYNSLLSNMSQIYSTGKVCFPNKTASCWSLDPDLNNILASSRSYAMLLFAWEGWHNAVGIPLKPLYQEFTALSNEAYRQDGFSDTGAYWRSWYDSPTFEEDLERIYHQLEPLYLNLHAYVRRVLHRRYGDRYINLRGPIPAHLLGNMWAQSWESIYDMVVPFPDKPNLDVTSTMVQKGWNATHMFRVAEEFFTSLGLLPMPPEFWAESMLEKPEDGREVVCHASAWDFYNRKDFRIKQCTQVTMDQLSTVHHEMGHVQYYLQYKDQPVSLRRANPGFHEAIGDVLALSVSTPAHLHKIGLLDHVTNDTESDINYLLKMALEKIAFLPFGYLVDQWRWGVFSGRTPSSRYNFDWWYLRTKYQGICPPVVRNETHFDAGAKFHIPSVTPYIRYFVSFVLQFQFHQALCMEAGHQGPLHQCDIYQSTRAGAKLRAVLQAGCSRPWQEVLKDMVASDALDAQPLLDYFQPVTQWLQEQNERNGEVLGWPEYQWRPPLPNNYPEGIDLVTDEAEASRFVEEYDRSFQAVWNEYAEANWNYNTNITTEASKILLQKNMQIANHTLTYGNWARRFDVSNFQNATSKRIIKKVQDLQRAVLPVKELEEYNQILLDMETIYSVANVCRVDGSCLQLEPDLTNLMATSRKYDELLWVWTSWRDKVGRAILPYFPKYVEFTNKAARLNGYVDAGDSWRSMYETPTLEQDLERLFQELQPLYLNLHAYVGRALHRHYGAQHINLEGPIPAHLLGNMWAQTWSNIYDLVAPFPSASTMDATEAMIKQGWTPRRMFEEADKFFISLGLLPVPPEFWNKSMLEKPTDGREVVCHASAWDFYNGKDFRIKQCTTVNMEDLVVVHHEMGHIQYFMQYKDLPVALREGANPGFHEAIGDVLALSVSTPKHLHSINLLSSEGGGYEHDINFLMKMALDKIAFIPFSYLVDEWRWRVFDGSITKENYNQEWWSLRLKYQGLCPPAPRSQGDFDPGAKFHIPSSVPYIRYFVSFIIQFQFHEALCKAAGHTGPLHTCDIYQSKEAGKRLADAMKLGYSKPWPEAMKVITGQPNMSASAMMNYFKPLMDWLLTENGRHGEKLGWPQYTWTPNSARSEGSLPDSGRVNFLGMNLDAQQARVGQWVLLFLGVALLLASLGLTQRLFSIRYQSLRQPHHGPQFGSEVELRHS
The experiment in a line: incubation of hippuryl-L-histidyl-L-leucine with angiotensin converting enzyme (HHL hydrolysis). Format: biochemical, rabbit. The following applies: 100 ng/ml; read-out: inhibition of angiotensin converting enzyme in vitro. As for the experimental part:
The activity of the compounds of this invention was established by incubation of hippuryl-L-histidyl-L-leucine at 37° C. with angiotensin converting enzyme by the following procedure:
A crude angiotensin converting enzyme supernatant is obtained by blending 1 gm. of rabbit lung acetone powder (PelFreez Biologicals) with 35 ml of 50 mM (buffered) potassium phosphate, pH 8.3 and centrifuging for 45 min. at 40,000 xg.
The specific angiotensin converting enzyme substrate Hippuryl-L-histidyl-L-leucine (HHL-Sigma Chem. Co.) is prepared at 5 mM in 200 mM potassium phosphate buffer containing 757 mM NaCl at pH 8.3.
Incubation for the assay of HHL hydrolysis by angiotensin converting enzyme is carried out in a 37° C. gyrorotary incubator in disposable 13×100 mm tubes. Each 0.25 ml assay mixture contains the following components at the final concentrations: potassium phosphate buffer, 100 mM; NaCl, 300 mM; HHL, 5 mM; and enzyme 0.15 ml (10 mU approx.) added last to initiate the reaction. Zero time controls have 0.25 ml of 2N HCl added before the enzyme. The timed reactions are terminated with acid at 30 min. similarly and the hippuric acid freed from substrate is extracted into 1.5 ml of ethylacetate by vortex mixing for 15 sec. […]
The hippuric acid is resuspended in 1.0 ml of water, the absorbance at 228 nm is determined, and the amount present is calculated from a standard curve. […]

As usually defined, the inhibition is how much of the control response was suppressed. On to `CC(CSC(=O)c1ccccc1)C(=O)N1C(C(=O)O)CCC1c1ccccc1` (stereo not drawn) [α-acid of Example 7, α-and β-5-Phenyl-1-(3-benzoylthio-2-methyl-1-oxopropyl)proline], for which the inhibition at 0.1 µg/mL was determined as 5%.
